The record followed here is the METLIN SMRT retention time set (Domingo-Almenara et al. 2019).

The series is described as follows: gradient 5% acetonitrile 3 min, to 50% in 2 min, to 85% in 15 min, held 3 min, 100 µL/min. To be noted: column: Zorbax Extend-C18 2.1 x 50 mm; eluents: water / acetonitrile, 0.1% formic acid. The procedure, abridged:
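Retention times of pure standards were taken from adduct peaks that were selected by computer and manually inspected. Over 3 months, mixtures of ~100 molecules were run by HPLC–quadrupole time-of-flight mass spectrometry in positive and negative ionization mode. The Zorbax Extend-C18 column (2.1 × 50 mm, 1.8 μm) ran at 100 μL/min in water and acetonitrile, each containing 0.1% formic acid, with 40 μL dead volume and 900 μL dwell volume.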
For the molecule `O=C1C(NS(=O)(=O)c2ccc(C(F)(F)F)cc2)CCN1c1ccc(F)cc1` (stereo not drawn), the RP-LC retention time worked out at 964 s. For `COc1ccc(CNS(=O)(=O)c2cc(-c3nc(C(C)C)cs3)sc2C)cc1` the value was 1180 s; for `CCSc1ccccc1C(=O)Nc1cccc2ccc(OC)nc12`, 1200 s. With `O=C(Nc1ccc(S(=O)(=O)Nc2nccs2)cc1)c1ccco1` the figure was 616 s; with `O=C(NCc1cccs1)c1cccnc1N1CCNC(c2ccccc2)C1` (stereo not drawn), 612 s. In turn, `COc1ccc(S(=O)(=O)N(C)C2CCc3nn(CC4CC4)c(=O)n3CC2)cc1Cl` (stereo not drawn) came in with an RP-LC retention time of 810 s. With `CC(C)Oc1ccc(-c2noc(CN3N=NC4C(=O)N(c5ccc(C(C)C)cc5)C(=O)C43)n2)cc1` (stereo not drawn) the figure was 1180 s; with `OCCOCCNCc1ccc(-c2ccc(F)cc2)o1`, 620 s; with `COC(=O)c1ccc2c(=O)n(-c3ccccc3)c(N3CCCCCC3)nc2c1`, 1240 s.

On to `Cc1ccccc1C(=O)NCc1ccc2c(c1)ncn2C(C)C`, for which the RP-LC retention time was 598 s. Molecule `COc1cccc(-n2c(=O)c(C(=O)Nc3ccc(F)c(F)c3)c(O)c3cccnc32)c1` returned an RP-LC retention time of 1250 s.

Molecule `O=C(Cn1c(=O)nc(N2CCCCC2)c2ccccc21)Nc1ccc2c(c1)OCCO2` registered an RP-LC retention time of 728 s.

The molecule `CC(NC(=O)Cn1c(C(F)(F)F)nc2ccccc21)c1ccc2c(c1)OCCCO2` (stereo not drawn) gave an RP-LC retention time of 842 s. With `NS(=O)(=O)c1cccnc1Nc1ccc(Br)cc1` the figure was 913 s; with `CCN(CC)C(=O)c1cc2c(s1)CCC(C(=O)NCc1ccc3c(c1)OCO3)C2` (stereo not drawn), 830 s; with `COc1ccc(N2CC(c3nc(-c4cc(OC)c(OC)c(OC)c4)no3)CC2=O)cc1` (stereo not drawn), 743 s. For `COc1cc(NC(=O)c2csc(-c3ccc(C)n3C)n2)cc(OC)c1` the value was 1130 s; for `O=C(NCCCN1CCOCC1)c1cc2occc2c(Nc2ccc(F)cc2)n1`, 652 s; for `COc1ccccc1N1CCN(c2cc(SCC(=O)Nc3ccccc3Cl)ncn2)CC1`, 1110 s. `COc1cc(-c2nc3cccc(C)n3c2Nc2ccc3c(c2)OCCO3)ccc1O` came in with an RP-LC retention time of 634 s. With `CNC(=O)C1CCCN(C(=O)Nc2ccc(NC(=O)Nc3ccccc3)cc2)C1` (stereo not drawn) the figure was 663 s; with `O=C(Nc1cccc(Cl)c1)N1CCN(c2cnn3c(C4CC4)nnc3c2)CC1`, 694 s. In turn, `O=C(Nc1cnn(-c2ncncc2N2CCOCC2)c1)C1CCCC1` showed an RP-LC retention time of 624 s. For `Cc1ccc(CNC(=O)C2CCCN(c3nnc4ccccn34)C2)cc1C` (stereo not drawn) the value was 708 s; for `Fc1ccc(-c2noc(-c3ccc(N4CCOCC4)nc3)n2)cc1`, 1080 s. For `COc1ccc(CCc2nc3nccc(-c4ccccc4)n3n2)cc1OC` the value was 821 s. With `CCOCCCNC(=O)C(C)Sc1ccc(=O)n(-c2ccc(C)c(Cl)c2)n1` (stereo not drawn) the figure was 797 s; with `Cn1c(=O)c(C(=O)N2CCN(c3ccccn3)CC2)nn(-c2ccc(F)cc2)c1=O`, 622 s. As to `CCCC(NC(=O)Cc1ccccc1F)C(=O)Nc1nc2ccccc2[nH]1` (stereo not drawn), the RP-LC retention time is 694 s.

As for `O=C(Cn1cnc2c(sc3nc(-c4ccccc4)ccc32)c1=O)NCc1ccccc1`, the RP-LC retention time stood at 953 s.

In the case of `Cc1cnc(C2CN(Cc3cccc(OC(F)(F)F)c3)C2)n1CC1CC1`, the RP-LC retention time came to 594 s.

Turning to `COc1cc(-c2noc(-c3nn(-c4cccc(C)c4)ccc3=O)n2)cc(OC)c1OC`, the RP-LC retention time is 888 s. For `Cn1cccc1-c1cc2n(n1)CCC(=O)N2CCCC(=O)NCc1cccc(Cl)c1` the value was 804 s; for `O=C(Cc1ccccc1Cl)NC(c1ccccc1)c1nnc(N2CCCCC2)o1` (stereo not drawn), 899 s. With `CC(C)c1ccc(NC(=O)C2CCN(S(C)(=O)=O)c3ccccc3O2)cc1` (stereo not drawn) the figure was 930 s; with `O=C(Cn1ncc2c(N3CCN(c4ccccn4)CC3)ncnc21)Nc1ccc(Cl)cc1F`, 640 s; with `O=S(=O)(c1ccc2c(c1)OCCO2)N1CCCn2nc(-c3cccs3)cc2C1`, 908 s. `CCCNC(=O)c1ccc2c(=O)n(Cc3ccccc3)c(N3CCCC3)nc2c1` registered an RP-LC retention time of 719 s. With `O=C1NCCCn2cc(S(=O)(=O)N3CCN(Cc4ccccc4)CC3)cc21` the figure was 758 s. Turning to `CCn1cc(S(=O)(=O)N2C[C@H]3CN(S(=O)(=O)c4cccc(C)c4)C[C@@H](C2)O3)cn1`, the RP-LC retention time was determined as 833 s.

On to `COc1ccc(C2(C(=O)N3CCN(C(=O)N4C[C@H]5C[C@H](C4)[C@H]4CCCC(=O)N4C5)CC3)CC2)cc1`, for which the RP-LC retention time is 696 s. `CC(C)(C)CC(=O)Nc1cnc(-c2ccc(Cl)cc2)nc1` returned an RP-LC retention time of 1130 s. With `CCN(CC)CCOc1ccc(/C(=C(\Cl)c2ccccc2)c2ccccc2)cc1` the figure was 996 s; with `O=C(Nc1ccc2c(c1)OCCO2)C1CCN(c2cncnc2N2CCCCC2)CC1`, 673 s. For `CCOc1ccc(NC(=O)C2CCCN(c3ccc(=O)n(-c4ccc(C)c(Cl)c4)n3)C2)cc1` (stereo not drawn) the value was 1010 s; for `Cc1ccc(N2C(=O)Cn3cccc3C2C(=O)NC2CCCCC2C)cc1` (stereo not drawn), 947 s; for `COc1cc(-n2c(C)nc3cc(C(=O)NCC4CCCO4)ccc32)cc(OC)c1OC` (stereo not drawn), 631 s. The molecule `CN1C(=O)c2cc(C(=O)N3CCN(c4ncccn4)CC3)nn2CC1(C)C(=O)NC1CCCCC1` (stereo not drawn) returned an RP-LC retention time of 702 s. Take `CC(C)c1cc(C(=O)N2Cc3ccc(CN4CCN(C)CC4)cc3C2)c(O)cc1O`: the RP-LC retention time came to 654 s. For `Cc1ccsc1C(=O)Nc1ccccc1SCc1nnc(-c2ccccc2)o1` the value was 1080 s. For `O=C(NCCn1c(CCc2ccccc2)nc2cccnc21)c1cccs1` the value was 687 s; for `CCOc1ccc(-c2noc(-c3nc(C)no3)n2)cc1`, 986 s. With `Cc1cc(NC(=O)CSc2nc3ccccc3s2)no1` the figure was 810 s; with `O=C(COc1ccccc1F)Nc1ccc2c(c1)N(C(=O)c1ccco1)CCC2`, 834 s; with `CCc1noc(NC(C)=O)c1-c1ccc(OC)c(S(=O)(=O)Nc2ccc(C(C)C)cc2)c1`, 891 s. For `COc1ccc(NC(=O)Cn2c(=O)c(CCC(=O)NC3CCCC3)nc3ccccc32)cc1Cl`, the RP-LC retention time worked out at 681 s. Turning to `Cc1c(C(=O)C(=O)NCc2ccccn2)c2ccccc2n1C`, the RP-LC retention time came to 625 s. `COc1ccc(-c2noc(Cc3nnc(-c4ccc(C)c(F)c4)o3)n2)cc1OC`: the RP-LC retention time was determined as 996 s.

Regarding `CCOc1ccc(NS(=O)(=O)c2cc(C(=O)Nc3ccc(Br)cc3)n[nH]2)cc1`, the RP-LC retention time is 927 s. With `CCOC(=O)c1c(C)n(C)c2ccc(OCCN(C)C)cc12` the figure was 632 s; with `CCC(=O)Nc1ccc(CCc2nc3ccc(C(=O)NC4CCCCCC4)cc3[nH]2)cc1`, 671 s.

Take `Cc1cccc(NC(=O)CSc2nc(N3CCCCC3)nc3ccccc23)c1`: the RP-LC retention time turned out to be 758 s. For `O=C1CC[C@@]2(O)C3Cc4ccc(O)c5c4C2(CCN3CC2CC2)[C@H]1O5` (stereo partly drawn) the value was 599 s. Molecule `CCN(c1ccccc1)S(=O)(=O)c1cc(-c2[nH]ncc2C(=O)N2CCOCC2)oc1C` registered an RP-LC retention time of 718 s. With `CCCNc1cc(N2CCC(CCC(=O)NCc3ccc(F)cc3Cl)CC2)ncn1` the figure was 727 s; with `CC(C)c1cc(C(=O)Nc2ccc(F)cc2)nc2ccnn12`, 1090 s; with `Cn1nccc1C(=O)N1CCC(c2nc(-c3ccccc3)no2)C1` (stereo not drawn), 779 s. For `Cc1ccc(-n2c(N3CCCC(C(=O)Nc4ccc(F)c(F)c4)C3)nc3ccsc3c2=O)cc1` (stereo not drawn) the value was 1050 s. With `c1ccc(-c2nc(-c3cnccn3)no2)c(OC2CCNC2)c1` (stereo not drawn) the figure was 615 s; with `COc1cccc(/C=C/c2nccc3ccccc23)c1OC`, 768 s. `CN(C)C(=O)c1cc2c(s1)CCC(C(=O)NCCc1ccccn1)C2` (stereo not drawn) showed an RP-LC retention time of 560 s.

For `COc1ccc(NC(=O)N2CCN(CC(=O)c3c(C)n(C)c4ccccc34)CC2)cc1`, the RP-LC retention time is 656 s. For `Cc1ccc(Cl)cc1NC(=O)N1CCC(c2nc3ccncc3n2C(C)C)C1` (stereo not drawn) the value was 573 s; for `Cc1ccc(C(=O)N2CCN(c3ccc(=O)n(-c4ccc(Cl)cc4)n3)CC2)s1`, 885 s; for `COCCN1C(=O)c2ccccc2C(C(=O)NCc2ccc(F)cc2)C12CCCC2` (stereo not drawn), 879 s.

The molecule `Cc1c(C(=O)N2CCN=C2SCc2cccnc2)cccc1[N+](=O)[O-]` registered an RP-LC retention time of 577 s.

As to `CCc1nncn1C1CCN(C(=O)c2cc(-c3cccs3)[nH]n2)C1` (stereo not drawn), the RP-LC retention time turned out to be 595 s.

Take `O=C(NCC1CCCO1)c1ccccc1OCc1nc(-c2ccccc2)no1` (stereo not drawn): the RP-LC retention time was 898 s.
